Measurements published in ChEMBL document CHEMBL6083186, “Chromenone: An emerging scaffold in anti-Alzheimer drug discovery” (Bioorg Med Chem Lett, 2024).
Converted amounts (≈) assume the structure as drawn.

How the values were obtained:
Acetylcholinesterase [1] = target: T1, Acetylcholinesterase (Homo sapiens, UniProt P22303); experiment: Inhibition of AChE (unknown origin) by Ellman's method
Cholinesterase [2] = target: T2, Cholinesterase (Homo sapiens, UniProt P06276); experiment: Inhibition of BChE (unknown origin) by Ellman's method
T2 sequence (P06276 whole entry): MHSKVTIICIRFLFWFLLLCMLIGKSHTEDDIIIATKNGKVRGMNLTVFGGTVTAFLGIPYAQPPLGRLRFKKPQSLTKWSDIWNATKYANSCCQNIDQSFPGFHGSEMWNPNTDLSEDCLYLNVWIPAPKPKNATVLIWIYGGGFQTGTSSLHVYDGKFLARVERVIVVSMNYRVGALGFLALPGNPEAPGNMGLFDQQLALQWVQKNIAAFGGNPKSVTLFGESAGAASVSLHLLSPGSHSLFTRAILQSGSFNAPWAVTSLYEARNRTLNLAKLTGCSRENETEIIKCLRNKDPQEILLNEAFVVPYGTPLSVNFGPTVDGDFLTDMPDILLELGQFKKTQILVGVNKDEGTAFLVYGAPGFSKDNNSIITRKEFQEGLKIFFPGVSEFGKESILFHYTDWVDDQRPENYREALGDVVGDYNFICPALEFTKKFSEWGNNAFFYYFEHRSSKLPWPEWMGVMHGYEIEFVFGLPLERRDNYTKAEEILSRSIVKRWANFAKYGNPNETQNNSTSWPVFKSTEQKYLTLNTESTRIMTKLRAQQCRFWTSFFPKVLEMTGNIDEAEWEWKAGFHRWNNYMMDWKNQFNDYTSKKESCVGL

Beta-secretase 1 [3] = target: T3, Beta-secretase 1 (Homo sapiens, UniProt P56817); experiment: Inhibition of BACE1 (unknown origin)
T3 sequence (P56817 whole entry): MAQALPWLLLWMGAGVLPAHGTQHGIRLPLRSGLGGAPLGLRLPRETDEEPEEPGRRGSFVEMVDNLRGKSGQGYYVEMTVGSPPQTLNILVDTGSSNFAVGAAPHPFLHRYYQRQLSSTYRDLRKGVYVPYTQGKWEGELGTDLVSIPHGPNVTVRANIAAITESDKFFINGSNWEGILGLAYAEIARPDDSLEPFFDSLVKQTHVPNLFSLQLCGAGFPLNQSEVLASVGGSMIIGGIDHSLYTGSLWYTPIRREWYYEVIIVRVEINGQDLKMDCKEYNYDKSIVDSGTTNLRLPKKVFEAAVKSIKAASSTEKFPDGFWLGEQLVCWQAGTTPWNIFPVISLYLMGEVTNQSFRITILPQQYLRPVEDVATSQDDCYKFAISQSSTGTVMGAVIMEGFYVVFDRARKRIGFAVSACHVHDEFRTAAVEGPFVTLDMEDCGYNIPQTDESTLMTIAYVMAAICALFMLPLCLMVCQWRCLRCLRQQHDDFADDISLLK

Cholinesterase [4] = target: T4, Cholinesterase (Equus caballus, UniProt P81908); experiment: Inhibition of equine BChE using BTCh as substrate incubated for 15 mins by Ellmans method
T4 sequence (P81908 whole entry): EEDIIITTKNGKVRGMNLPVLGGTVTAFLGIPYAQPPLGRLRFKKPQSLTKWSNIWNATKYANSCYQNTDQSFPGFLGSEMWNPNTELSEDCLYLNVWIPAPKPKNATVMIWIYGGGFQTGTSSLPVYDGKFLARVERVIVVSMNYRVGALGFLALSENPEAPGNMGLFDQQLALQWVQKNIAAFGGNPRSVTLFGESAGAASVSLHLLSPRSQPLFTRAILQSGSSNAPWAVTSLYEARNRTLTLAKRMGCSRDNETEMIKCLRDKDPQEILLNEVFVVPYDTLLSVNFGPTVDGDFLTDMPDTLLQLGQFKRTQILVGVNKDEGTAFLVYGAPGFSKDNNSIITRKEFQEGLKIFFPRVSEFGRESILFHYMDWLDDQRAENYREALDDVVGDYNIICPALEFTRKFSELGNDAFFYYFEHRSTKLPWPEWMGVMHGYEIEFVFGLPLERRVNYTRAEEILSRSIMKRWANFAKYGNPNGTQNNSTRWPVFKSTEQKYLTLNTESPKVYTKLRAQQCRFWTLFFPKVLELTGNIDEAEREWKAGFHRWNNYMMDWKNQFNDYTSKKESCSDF

Beta-secretase 1 [5] = target: T3, Beta-secretase 1; experiment: Inhibition of BACE1 (unknown origin) using Rh-EVNLDAEFK-Quencher as substrate incubated for 1 hr by FRET assay
Acetylcholinesterase [6] = target: T1, Acetylcholinesterase; experiment: Inhibition of AChE (unknown origin)
Acetylcholinesterase [7] = target: T1, Acetylcholinesterase; experiment: Inhibition of human AChE using […] as substrate incubated for 20 mins by DTNB reagent based Ellman's method
Homo sapiens = organism: Homo sapiens; experiment: Selectivity index, ratio of IC50 for human BuChE to IC50 for human AChE
[8] = Antioxidant activity assessed as DPPH radical scavenging activity; format: functional
Acetylcholinesterase [9] = target: T1, Acetylcholinesterase; experiment: Inhibition of human recombinant AChE using acetylthiocholine iodide as substrate preincubated for 15 mins followed by substrate addition measured for 10 mins DTNB reagent based Ellman's method
[10] = target: T5, Amine oxidase [flavin-containing] B (Homo sapiens, UniProt P27338); experiment: Inhibition of MAO-B (unknown origin)
T5 sequence (P27338 whole entry): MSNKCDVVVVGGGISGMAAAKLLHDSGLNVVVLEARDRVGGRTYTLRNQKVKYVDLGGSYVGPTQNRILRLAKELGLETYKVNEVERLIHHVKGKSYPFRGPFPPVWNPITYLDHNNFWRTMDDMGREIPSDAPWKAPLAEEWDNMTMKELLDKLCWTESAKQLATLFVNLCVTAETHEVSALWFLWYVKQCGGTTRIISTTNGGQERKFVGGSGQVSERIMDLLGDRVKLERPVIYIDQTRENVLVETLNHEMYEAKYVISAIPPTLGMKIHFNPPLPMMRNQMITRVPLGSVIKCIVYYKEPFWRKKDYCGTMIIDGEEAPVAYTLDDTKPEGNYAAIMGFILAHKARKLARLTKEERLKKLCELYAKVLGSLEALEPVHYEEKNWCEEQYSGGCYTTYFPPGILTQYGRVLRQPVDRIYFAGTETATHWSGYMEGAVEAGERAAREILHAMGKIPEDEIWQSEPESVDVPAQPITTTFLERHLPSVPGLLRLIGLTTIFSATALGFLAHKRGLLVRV

Cholinesterase [11] = target: T2, Cholinesterase; experiment: Inhibition of BuChE (unknown origin)
Cholinesterase [12] = target: T4, Cholinesterase; experiment: Inhibition of equine BuChE
Cholinesterase [13] = target: T4, Cholinesterase; experiment: Inhibition of equine serum BChE using butyrylthiocholine iodide as substrate by DTNB reagent based Ellman's method
Cholinesterase [14] = target: T2, Cholinesterase; experiment: Inhibition of human BuChE using butyrylthiocholine iodide as substrate pre-incubated for 10 mins followed by substrate addition and measured for 15 mins by Ellman's method
Beta-secretase 1 [15] = target: T3, Beta-secretase 1; experiment: Inhibition of BACE1 (unknown origin) by FRET assay
Acetylcholinesterase [16] = target: Acetylcholinesterase (Electrophorus electricus, UniProt O42275); experiment: Inhibition of electric eel AChE
Sequence of Acetylcholinesterase (Electrophorus electricus, UniProt O42275) (O42275 whole entry): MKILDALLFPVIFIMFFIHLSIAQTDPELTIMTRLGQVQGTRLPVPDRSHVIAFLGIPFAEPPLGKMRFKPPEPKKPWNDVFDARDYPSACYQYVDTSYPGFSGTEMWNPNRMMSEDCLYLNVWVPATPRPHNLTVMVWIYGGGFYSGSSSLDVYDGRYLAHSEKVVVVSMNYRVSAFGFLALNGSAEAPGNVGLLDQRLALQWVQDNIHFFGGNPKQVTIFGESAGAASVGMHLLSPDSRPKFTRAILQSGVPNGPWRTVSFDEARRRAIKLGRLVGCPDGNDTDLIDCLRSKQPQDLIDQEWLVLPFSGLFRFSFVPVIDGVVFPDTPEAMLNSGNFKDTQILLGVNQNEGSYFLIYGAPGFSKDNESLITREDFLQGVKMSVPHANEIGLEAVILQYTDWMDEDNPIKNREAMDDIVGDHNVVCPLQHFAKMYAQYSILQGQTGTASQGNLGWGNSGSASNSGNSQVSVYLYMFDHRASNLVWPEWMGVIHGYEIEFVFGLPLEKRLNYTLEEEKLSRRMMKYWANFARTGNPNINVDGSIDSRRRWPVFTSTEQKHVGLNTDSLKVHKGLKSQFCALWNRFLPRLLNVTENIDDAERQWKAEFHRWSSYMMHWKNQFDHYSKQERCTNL

T1 sequence (P22303 whole entry): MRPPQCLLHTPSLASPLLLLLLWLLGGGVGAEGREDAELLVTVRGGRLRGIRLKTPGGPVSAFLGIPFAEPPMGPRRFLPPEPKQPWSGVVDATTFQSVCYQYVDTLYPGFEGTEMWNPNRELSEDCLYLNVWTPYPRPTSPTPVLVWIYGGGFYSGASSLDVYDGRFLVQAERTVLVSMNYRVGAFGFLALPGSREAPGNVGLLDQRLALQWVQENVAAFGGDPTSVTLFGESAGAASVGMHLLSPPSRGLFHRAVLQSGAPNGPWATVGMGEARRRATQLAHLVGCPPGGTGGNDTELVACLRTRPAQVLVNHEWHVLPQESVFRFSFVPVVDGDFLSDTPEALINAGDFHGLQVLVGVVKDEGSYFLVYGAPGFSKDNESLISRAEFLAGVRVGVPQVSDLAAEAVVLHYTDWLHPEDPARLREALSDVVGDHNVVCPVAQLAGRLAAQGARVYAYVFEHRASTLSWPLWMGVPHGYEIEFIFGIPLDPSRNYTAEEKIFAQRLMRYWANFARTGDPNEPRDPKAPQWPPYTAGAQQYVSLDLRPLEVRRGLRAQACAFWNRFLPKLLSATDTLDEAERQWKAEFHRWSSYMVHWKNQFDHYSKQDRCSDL

COc1cc(Cn2cc(COc3ccc4ccc(=O)oc4c3C(C)=O)nn2)cc(OC)c1
IC50 (Acetylcholinesterase [1]): 2.57 µM | IC50 (Cholinesterase [2]): 3.26 µM | IC50 (Beta-secretase 1 [3]): 10.7 µM

COc1cc2cc(-c3ccc(CN(C)Cc4ccccc4)cc3)c(=O)oc2cc1OC
IC50 (Cholinesterase [4]): 48.9 µM

O=c1ccc2ccc(O)cc2o1 [UMBELLIFERONE]
IC50 (Cholinesterase [2]): 105 µM | IC50 (Beta-secretase 1 [5]): 143 µM

O=C1OC2=C(O)C(O)=CCC2C=C1c1ccc(O)c(O)c1 (stereo not drawn)
IC50 (Acetylcholinesterase [6]): 3.04 µM

Cc1cc(=O)oc2cc(OCc3nnc(-c4cc(O)c(O)c(O)c4)o3)ccc12
IC50 (Acetylcholinesterase [7]): 28.7 µM | Ratio IC50 (Homo sapiens): 1.65

Cc1c(C)c2c(c(C)c1O)CCC(C)(C(=O)O)O2 (stereo not drawn) [TROLOX]
IC50 [8]: 12.54 µg/mL (≈ 50.1 µM)

CC(C)c1cc2cc3ccc(=O)oc3cc2o1
IC50 (Acetylcholinesterase [9]): 86.5 µM

O=C1CCOc2ccc(OCCN3CCCCCC3)cc21
IC50 [10]: 1.11 µM | IC50 (Acetylcholinesterase [6]): 4.88 µM | IC50 (Cholinesterase [11]): 13.7 µM

COc1cccc2cc(-c3ccc(NC(=O)c4ccc(F)cc4)cc3)c(=O)oc12
IC50 (Cholinesterase [12]): 0.55 µM

COc1cc2oc(=O)ccc2cc1O [ISOSCOPOLETIN]
IC50 (Acetylcholinesterase [1]): 174 µM | IC50 (Cholinesterase [2]): 110 µM | IC50 (Beta-secretase 1 [5]): 146 µM

COc1ccc2ccc(=O)oc2c1 [HERNIARIN]
IC50 (Acetylcholinesterase [1]): 104 µM | IC50 (Cholinesterase [2]): 119 µM | IC50 (Beta-secretase 1 [5]): 172 µM

Cc1cc(=O)oc2cc(OCc3nnc(-c4ccc(O)c(O)c4)o3)ccc12
IC50 (Acetylcholinesterase [7]): 29.6 µM | Ratio IC50 (Homo sapiens): 1.55

O=C(NCCCN1CCOCC1)c1cc2ccc(OCc3cn(Cc4cccc(Cl)c4Cl)nn3)cc2oc1=O
IC50 (Beta-secretase 1 [3]): 21.1 µM | IC50 (Cholinesterase [13]): 1.71 µM

Cc1cc(=O)oc2cc(OCC(=O)N/N=C\c3ccc(C(=O)O)cc3)ccc12
IC50 (Acetylcholinesterase [1]): 0.802 µM

COc1cc(OC)c2c(=O)c(OCCCCn3cc(CN4C(=O)C(=O)c5ccccc54)nn3)c(-c3ccc(OC)c(OC)c3)oc2c1
IC50 (Cholinesterase [2]): 11.2 µM

Cc1cc(=O)oc2cc(OCc3nnc(Cc4cccc5c4OCO5)o3)ccc12
IC50 (Cholinesterase [14]): 24 µM

O=c1oc2ccccc2cc1-c1ccc(Br)cc1
IC50 (Acetylcholinesterase [6]): 19.2 µM

COc1cccc2cc(C(=O)NCc3cnnn3Cc3ccccc3Cl)c(=O)oc12
IC50 (Beta-secretase 1 [15]): 96.1 µM | IC50 (Acetylcholinesterase [16]): 15.4 µM

O=c1c(O)c(-c2ccc(O)c(O)c2)oc2cc(O)cc(O)c12 [QUERCETIN]
IC50 [8]: 3.18 µg/mL (≈ 10.5 µM)

COc1cccc2cc(-c3ccc(NC(=O)c4ccc(CCl)cc4)cc3)c(=O)oc12
IC50 (Acetylcholinesterase [6]): 0.091 µM

O=C(O)c1cc2ccc(=O)oc2cc1O
IC50 (Acetylcholinesterase [1]): 145 µM | IC50 (Cholinesterase [2]): 27.2 µM | IC50 (Beta-secretase 1 [5]): 0.34 µM

O=c1ccc2cc(O)c(O)cc2o1 [ESCULETIN]
IC50 (Acetylcholinesterase [1]): 6.13 µM | IC50 (Cholinesterase [2]): 8.66 µM

O=C1O[C@H]([C@@H](O)CO)C(O)=C1O [ASCORBIC ACID]
IC50 [8]: 10.52 µg/mL (≈ 59.7 µM)

COc1cc2ccc(=O)oc2cc1O [SCOPOLETIN]
IC50 (Acetylcholinesterase [1]): 154 µM | IC50 (Cholinesterase [2]): 159 µM | IC50 (Beta-secretase 1 [5]): 159 µM

O=c1oc2c(O)cccc2cc1-c1ccccc1
IC50 (Cholinesterase [12]): 13.1 µM
